Source: PubChem BioAssay (NCI)
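These data come from cells grown in 96-well plates and exposed to compound for 48 hours at five concentrations. At the TGI there is no net growth.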

What was measured:
Assay in all cases: DTP human tumour cell line panel, 48 h
SK-OV-3 ovarian = tested on: SK-OV-3 ovarian
LOX IMVI melanoma = tested on: LOX IMVI melanoma
MDA-N = tested on: MDA-N
SR leukemia = tested on: SR leukemia
CAKI-1 renal = tested on: CAKI-1 renal
BT-549 breast = tested on: BT-549 breast
MDA-MB-231 breast = tested on: MDA-MB-231 breast
MCF7 breast = tested on: MCF7 breast
HS 578T breast = tested on: HS 578T breast
RXF 393 renal = tested on: RXF 393 renal
U251 CNS = tested on: U251 CNS
RPMI-8226 leukemia = tested on: RPMI-8226 leukemia
SK-MEL-5 melanoma = tested on: SK-MEL-5 melanoma
HOP-62 NSCLC = tested on: HOP-62 NSCLC
T-47D breast = tested on: T-47D breast
SF-539 CNS = tested on: SF-539 CNS
K-562 leukemia = tested on: K-562 leukemia
SN12C renal = tested on: SN12C renal
HOP-92 NSCLC = tested on: HOP-92 NSCLC
SK-MEL-2 melanoma = tested on: SK-MEL-2 melanoma

Measured: TGI

Cc1c(CCN2CCOCC2)c(N2CCOCC2)n2c(nc3ccccc32)c1C#N
> 10 µM: SK-OV-3 ovarian | LOX IMVI melanoma | MDA-N | SR leukemia | CAKI-1 renal | BT-549 breast | MDA-MB-231 breast | MCF7 breast | HS 578T breast | RXF 393 renal | U251 CNS | RPMI-8226 leukemia | SK-MEL-5 melanoma | HOP-62 NSCLC | T-47D breast | SF-539 CNS | K-562 leukemia | SN12C renal | HOP-92 NSCLC

CSC1=Nc2ccccc2-c2nc3ccccc3cc2C1
> 100 µM: SK-MEL-2 melanoma | SK-OV-3 ovarian | LOX IMVI melanoma | MDA-N | SR leukemia | CAKI-1 renal | BT-549 breast | MDA-MB-231 breast | MCF7 breast | HS 578T breast | RXF 393 renal | U251 CNS | SK-MEL-5 melanoma | HOP-62 NSCLC | T-47D breast | SF-539 CNS | K-562 leukemia | SN12C renal | HOP-92 NSCLC

CC(C)(C)OCC1NC(=O)[C@@H]2Cc3c([nH]c4ccccc34)C(c3ccccc3)N2C1=O (stereo partly drawn)
> 33.7 µM: RPMI-8226 leukemia
> 50 µM: SK-MEL-2 melanoma | SK-OV-3 ovarian | LOX IMVI melanoma | MDA-N | CAKI-1 renal | BT-549 breast | MDA-MB-231 breast | MCF7 breast | HS 578T breast | RXF 393 renal | U251 CNS | SK-MEL-5 melanoma | HOP-62 NSCLC | T-47D breast | SF-539 CNS | K-562 leukemia | SN12C renal | HOP-92 NSCLC
> 33 µM: SR leukemia

CC1CN=C(Nc2ccccc2)S1 (stereo not drawn)
> 100 µM: SK-MEL-2 melanoma | SK-OV-3 ovarian | LOX IMVI melanoma | MDA-N | SR leukemia | CAKI-1 renal | BT-549 breast | MDA-MB-231 breast | MCF7 breast | HS 578T breast | RXF 393 renal | U251 CNS | RPMI-8226 leukemia | SK-MEL-5 melanoma | HOP-62 NSCLC | T-47D breast | SF-539 CNS | K-562 leukemia | SN12C renal | HOP-92 NSCLC

O=C1c2ccccc2CN1c1ccc(OCCN2CCCCC2)cc1
> 10 µM: SK-MEL-2 melanoma | SK-OV-3 ovarian | LOX IMVI melanoma | MDA-N | SR leukemia | CAKI-1 renal | BT-549 breast | MDA-MB-231 breast | MCF7 breast | HS 578T breast | RXF 393 renal | U251 CNS | RPMI-8226 leukemia | SK-MEL-5 melanoma | HOP-62 NSCLC | T-47D breast | SF-539 CNS | K-562 leukemia | SN12C renal | HOP-92 NSCLC

N#CC1C(=O)SC2c3ccccc3C(=O)c3ccccc3C12 (stereo not drawn)
> 10 µM: SK-MEL-2 melanoma | SK-OV-3 ovarian | LOX IMVI melanoma | MDA-N | SR leukemia | CAKI-1 renal | BT-549 breast | MDA-MB-231 breast | MCF7 breast | HS 578T breast | RXF 393 renal | U251 CNS | RPMI-8226 leukemia | SK-MEL-5 melanoma | HOP-62 NSCLC | T-47D breast | SF-539 CNS | K-562 leukemia | SN12C renal

COc1cccc2c1CCc1c(-c3ccc(F)cc3)cc(-c3ccc4ccccc4n3)nc1-2
> 100 µM: SK-MEL-2 melanoma | SK-OV-3 ovarian | LOX IMVI melanoma | MDA-N | SR leukemia | CAKI-1 renal | BT-549 breast | MDA-MB-231 breast | MCF7 breast | HS 578T breast | RXF 393 renal | U251 CNS | RPMI-8226 leukemia | SK-MEL-5 melanoma | HOP-62 NSCLC | T-47D breast | SF-539 CNS | K-562 leukemia | HOP-92 NSCLC

COc1ccc(S(=O)(=O)NC(CCC(=O)NN)C(=O)NN)cc1 (stereo not drawn)
> 100 µM: SK-MEL-2 melanoma | SK-OV-3 ovarian | LOX IMVI melanoma | MDA-N | SR leukemia | CAKI-1 renal | BT-549 breast | MDA-MB-231 breast | MCF7 breast | HS 578T breast | U251 CNS | RPMI-8226 leukemia | SK-MEL-5 melanoma | HOP-62 NSCLC | T-47D breast | SF-539 CNS | K-562 leukemia | SN12C renal | HOP-92 NSCLC

Nc1nc2c(c(=O)[nH]1)C(c1ccccc1)CC(=O)N2 (stereo not drawn)
> 100 µM: SK-MEL-2 melanoma | SK-OV-3 ovarian | LOX IMVI melanoma | MDA-N | SR leukemia | BT-549 breast | MDA-MB-231 breast | MCF7 breast | HS 578T breast | U251 CNS | RPMI-8226 leukemia | SK-MEL-5 melanoma | HOP-62 NSCLC | T-47D breast | SF-539 CNS | K-562 leukemia | SN12C renal

CN(C)CCCNc1ccc2c(=O)n(CCN(C)C)c(=O)n3c4ccccc4c(=O)c1c23
2.02 µM: SF-539 CNS
0.369 µM: BT-549 breast
2.52 µM: SK-MEL-2 melanoma
7.79 µM: HOP-92 NSCLC
2.19 µM: SK-MEL-5 melanoma
5.91 µM: HOP-62 NSCLC
2.58 µM: RXF 393 renal
0.941 µM: SN12C renal
2.96 µM: SR leukemia
2.15 µM: U251 CNS
15.7 µM: HS 578T breast
0.595 µM: RPMI-8226 leukemia
0.343 µM: LOX IMVI melanoma
0.565 µM: MCF7 breast
4.9 µM: SK-OV-3 ovarian
0.496 µM: MDA-MB-231 breast
0.944 µM: CAKI-1 renal
13.7 µM: T-47D breast
0.312 µM: MDA-N

c1ccc(N=C(Nc2ccccc2)N2CCCC2)cc1
> 100 µM: SK-MEL-2 melanoma | SK-OV-3 ovarian | LOX IMVI melanoma | MDA-N | SR leukemia | CAKI-1 renal | BT-549 breast | MCF7 breast | HS 578T breast | U251 CNS | RPMI-8226 leukemia | SK-MEL-5 melanoma | HOP-62 NSCLC | T-47D breast | K-562 leukemia | SN12C renal | HOP-92 NSCLC

O=C1/C(=C/c2ccc(OC(=O)c3ccccc3)cc2)CCC/C1=C\c1ccc(OC(=O)c2ccccc2)cc1
> 100 µM: SK-MEL-2 melanoma | LOX IMVI melanoma | MDA-N | SR leukemia | CAKI-1 renal | BT-549 breast | MDA-MB-231 breast | MCF7 breast | HS 578T breast | U251 CNS | RPMI-8226 leukemia | SK-MEL-5 melanoma | HOP-62 NSCLC | T-47D breast | SF-539 CNS | SN12C renal | HOP-92 NSCLC

COc1cc(S(=O)(=O)Nc2nc(-c3ccc(N4C(=O)/C(=C/C=C/c5ccccc5)N=C4c4ccccc4)cc3)cs2)ccc1Cl
94 µM: BT-549 breast
> 100 µM: SK-MEL-2 melanoma | SK-OV-3 ovarian | LOX IMVI melanoma | MDA-N | SR leukemia | CAKI-1 renal | MDA-MB-231 breast | MCF7 breast | HS 578T breast | RXF 393 renal | U251 CNS | SK-MEL-5 melanoma | HOP-62 NSCLC | T-47D breast | SF-539 CNS | K-562 leukemia | SN12C renal | HOP-92 NSCLC

O=c1c2cc(-c3ccccc3)sc2nc2n1N=C(c1ccc(Cl)cc1)CS2
> 100 µM: SK-OV-3 ovarian | LOX IMVI melanoma | MDA-N | SR leukemia | CAKI-1 renal | BT-549 breast | MDA-MB-231 breast | MCF7 breast | HS 578T breast | RXF 393 renal | U251 CNS | RPMI-8226 leukemia | SK-MEL-5 melanoma | HOP-62 NSCLC | T-47D breast | SF-539 CNS | K-562 leukemia | SN12C renal | HOP-92 NSCLC

Cc1c(S(=O)(=O)O)ccc(N=Nc2c(O)c(C(=O)O)cc3ccccc23)c1Cl
> 100 µM: SK-MEL-2 melanoma | SK-OV-3 ovarian | LOX IMVI melanoma | MDA-N | CAKI-1 renal | BT-549 breast | MDA-MB-231 breast | MCF7 breast | HS 578T breast | RXF 393 renal | U251 CNS | RPMI-8226 leukemia | SK-MEL-5 melanoma | HOP-62 NSCLC | T-47D breast | K-562 leukemia | SN12C renal | HOP-92 NSCLC
> 90.2 µM: SR leukemia

Nc1ccc2c(=O)cc(-c3cccs3)[nH]c2n1
> 59.7 µM: SN12C renal
> 45.6 µM: U251 CNS
> 45.4 µM: LOX IMVI melanoma
1.73 µM: MDA-N
> 100 µM: SK-MEL-2 melanoma | SK-OV-3 ovarian | CAKI-1 renal | BT-549 breast | MDA-MB-231 breast | MCF7 breast | RXF 393 renal | HOP-62 NSCLC | T-47D breast | K-562 leukemia | HOP-92 NSCLC
> 24.9 µM: HS 578T breast
21 µM: SK-MEL-5 melanoma
6.17 µM: SF-539 CNS
> 34 µM: SR leukemia

COc1cc(C2SCC(=O)N2c2ccc(-n3c(-c4ccccc4)nc4ccccc4c3=O)cc2)cc(OC)c1OC (stereo not drawn)
84.2 µM: HOP-92 NSCLC
> 100 µM: SK-MEL-2 melanoma | SK-OV-3 ovarian | LOX IMVI melanoma | MDA-N | SR leukemia | CAKI-1 renal | BT-549 breast | MDA-MB-231 breast | MCF7 breast | HS 578T breast | U251 CNS | RPMI-8226 leukemia | SK-MEL-5 melanoma | HOP-62 NSCLC | T-47D breast | SF-539 CNS | K-562 leukemia | SN12C renal

CCCSc1ccc2[nH]c(/N=C/c3ccccc3)cc2c1
32.5 µM: LOX IMVI melanoma
> 100 µM: CAKI-1 renal | T-47D breast
97.2 µM: BT-549 breast
48.3 µM: RPMI-8226 leukemia
32.2 µM: SK-MEL-2 melanoma
20.4 µM: SK-MEL-5 melanoma
62.1 µM: HS 578T breast
46.3 µM: SF-539 CNS
38.8 µM: K-562 leukemia
45.7 µM: SN12C renal
42.7 µM: RXF 393 renal
27.8 µM: SR leukemia
76.9 µM: HOP-92 NSCLC
62.6 µM: MDA-N

NC(=O)c1cc2ccc(O)cc2o/c1=N/NC(=O)c1ccccc1
> 100 µM: SK-OV-3 ovarian | LOX IMVI melanoma | MDA-N | SR leukemia | CAKI-1 renal | BT-549 breast | MDA-MB-231 breast | MCF7 breast | HS 578T breast | RXF 393 renal | U251 CNS | RPMI-8226 leukemia | SK-MEL-5 melanoma | HOP-62 NSCLC | K-562 leukemia | SN12C renal | HOP-92 NSCLC
91.8 µM: SK-MEL-2 melanoma
91.4 µM: T-47D breast

CC(O)c1cc2c(s1)C(=O)c1ccsc1C2=O (stereo not drawn)
0.56 µM: RXF 393 renal
0.392 µM: SR leukemia
0.967 µM: HOP-92 NSCLC
0.415 µM: U251 CNS
0.238 µM: SN12C renal
0.32 µM: MCF7 breast
1.96 µM: CAKI-1 renal
0.283 µM: HOP-62 NSCLC
0.158 µM: SF-539 CNS
0.416 µM: RPMI-8226 leukemia
0.624 µM: MDA-MB-231 breast
0.264 µM: SK-MEL-2 melanoma
0.0198 µM: SK-MEL-5 melanoma
0.23 µM: BT-549 breast
1.42 µM: T-47D breast
0.566 µM: HS 578T breast
0.0275 µM: MDA-N
5.46 µM: SK-OV-3 ovarian
0.412 µM: K-562 leukemia
